Measured values published in patent publication US12281225B2, “Process for preparing stable polymers containing vinylimidazole” (BASF SE, priority 2018, dated 2025).

How the values were obtained:
[1] = Iodine color number according to DIN 6162:2014-09; type: physicochemical
[2] = Analysis of active substance: preservative concentration before and after storage in VI-containing polymer solution; type: physicochemical; conditions: for active-substance concentration, 0 d, RT: before storage; for active-substance concentration, 14 d, 40° C.: storage 14 d at 40° C.; for active-substance concentration, 28 d, 40° C.: storage 28 d at 40° C.; for active-substance concentration, 60 d 40° C.: storage 60 d at 40° C.
In short: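 Preservatives (MIT, BIT, CMIT, OIT, DCOIT, iodopropynyl butyl carbamate) in aqueous vinylpyrrolidone–vinylimidazole copolymer solution quantified after dilution by isocratic RP18 chromatography with UV detection, using an acid-methanol eluent.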

[3] = Physical stability; visual assessment (color, turbidity, phase separation); type: physicochemical; set-up: key: ++: no discernible change with respect to color, turbidity or phase separation; +: marginal change in color number, somewhat increased Tyndall effect but no turbidity; 0: easily discernible increase in color number and moderate turbidity−no phase separation; −: turbidity and change in color number readily discernible by visual assessment; −−: strong color change with strong turbidity and incipient phase separation
In short: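 Scoring was by eye on a scale from ++ to −−, where ++ means no change and −− means strong color change, strong turbidity and incipient phase separation. Color, turbidity and phase separation were the criteria.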

[4] = system: Yeast: Candida albicans, Candida valida, Rhodotorula rura, Saccharomyces cerevisiae; assay: Preservation test with periodic inoculation, yeast assessment; type: cell-based; conditions: for Start sample measurement, yeast assess., 4th inoculation: freshly formulated; for 60 d 40° C., yeast assess., 4th inoculation: sample stored 60 d at 40° C.
In short: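 Semiquantitative growth scores (−− no growth to ++ strong growth) from weekly agar streaks incubated 3 days at 25 °C. Preserved polymer samples got four weekly 0.5 ml inoculations (titer 10^9 organisms/ml), the first two days after preservative addition; testing began fresh and after 60-day storage at 40 °C.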

[5] = Polymer P5 (HP56) with stabilizer

## CCCCNC(=O)OCC#CI [Iodopropynyl butyl carbamate, iodopropynyl butyl carbamate]
[1]; Polymer P1 with stabilizer
  Iodine color number, 60 d 40° C.: 7.5
  Iodine color number, start: 2.8
[1]; Polymer P2 with stabilizer
  Iodine color number, 60 d 40° C.: 8.0
  Iodine color number, start: 2.8
[1]; Polymer P3 with stabilizer
  Iodine color number, 60 d 40° C.: 10.4
  Iodine color number, start: 3.4
[1]; Polymer P4 with stabilizer
  Iodine color number, 60 d 40° C.: 10.0
  Iodine color number, start: 3.4
[1]; [5]
  Iodine color number, 60 d 40° C.: 11.7
  Iodine color number, start: 3.4
[1]; Polymer P6 with stabilizer
  Iodine color number, 60 d 40° C.: 11.0
  Iodine color number, start: 3.4
[1]; Polymer P7 with stabilizer
  Iodine color number, 60 d 40° C.: 11.0
  Iodine color number, start: 3.4
[1]; Polymer P8 with stabilizer
  Iodine color number, 60 d 40° C.: 11.4
  Iodine color number, start: 3.4
[1]; Polymer P9 with stabilizer
  Iodine color number, 60 d 40° C.: 16.9
  Iodine color number, start: 3.9
[2]; in Polymer P1
  active-substance concentration, 0 d, RT: 250 ppm
  active-substance concentration, 14 d, 40° C.: 206 ppm
  active-substance concentration, 28 d, 40° C.: 176 ppm
  active-substance concentration, 60 d 40° C.: 84 ppm
[2]; in Polymer P2
  active-substance concentration, 0 d, RT: 250 ppm
  active-substance concentration, 14 d, 40° C.: 225 ppm
  active-substance concentration, 28 d, 40° C.: 183 ppm
  active-substance concentration, 60 d 40° C.: 122 ppm
[2]; in Polymer P3
  active-substance concentration, 0 d, RT: 250 ppm
  active-substance concentration, 14 d, 40° C.: 221 ppm
  active-substance concentration, 28 d, 40° C.: 190 ppm
  active-substance concentration, 60 d 40° C.: 107 ppm
[2]; in Polymer P4
  active-substance concentration, 0 d, RT: 250 ppm
  active-substance concentration, 14 d, 40° C.: 212 ppm
  active-substance concentration, 28 d, 40° C.: 188 ppm
  active-substance concentration, 60 d 40° C.: 101 ppm
[2]; in Polymer P5 (HP56)
  active-substance concentration, 0 d, RT: 250 ppm
  active-substance concentration, 14 d, 40° C.: 206 ppm
  active-substance concentration, 28 d, 40° C.: 176 ppm
  active-substance concentration, 60 d 40° C.: 84 ppm
[2]; in Polymer P6
  active-substance concentration, 0 d, RT: 250 ppm
  active-substance concentration, 14 d, 40° C.: 201 ppm
  active-substance concentration, 28 d, 40° C.: 174 ppm
  active-substance concentration, 60 d 40° C.: 80 ppm
[2]; in Polymer P7
  active-substance concentration, 0 d, RT: 250 ppm
  active-substance concentration, 14 d, 40° C.: 207 ppm
  active-substance concentration, 28 d, 40° C.: 178 ppm
  active-substance concentration, 60 d 40° C.: 87 ppm
[2]; in Polymer P8
  active-substance concentration, 0 d, RT: 250 ppm
  active-substance concentration, 14 d, 40° C.: 206 ppm
  active-substance concentration, 28 d, 40° C.: 176 ppm
  active-substance concentration, 60 d 40° C.: 84 ppm
[2]; in Polymer P9
  active-substance concentration, 0 d, RT: 250 ppm
  active-substance concentration, 14 d, 40° C.: 191 ppm
  active-substance concentration, 28 d, 40° C.: 160 ppm
  active-substance concentration, 60 d 40° C.: 78 ppm
[3]; Polymer P1 with stabilizer
  Physical stability, 60 d 40° C.*: −
[3]; Polymer P2 with stabilizer
  Physical stability, 60 d 40° C.*: −
[3]; Polymer P3 with stabilizer
  Physical stability, 60 d 40° C.*: −
[3]; Polymer P4 with stabilizer
  Physical stability, 60 d 40° C.*: −
[3]; [5]
  Physical stability, 60 d 40° C.*: −
[3]; Polymer P6 with stabilizer
  Physical stability, 60 d 40° C.*: −
[3]; Polymer P7 with stabilizer
  Physical stability, 60 d 40° C.*: −
[3]; Polymer P8 with stabilizer
  Physical stability, 60 d 40° C.*: −
[3]; Polymer P9 with stabilizer
  Physical stability, 60 d 40° C.*: −
[4]; Polymer P1
  Start sample measurement, yeast assess., 4th inoculation: − (slight growth, max. 100 colonies)
  60 d 40° C., yeast assess., 4th inoculation: + +
[4]; Polymer P2
  Start sample measurement, yeast assess., 4th inoculation: − (slight growth, max. 100 colonies)
  60 d 40° C., yeast assess., 4th inoculation: +
[4]; Polymer P3
  Start sample measurement, yeast assess., 4th inoculation: − (slight growth, max. 100 colonies)
  60 d 40° C., yeast assess., 4th inoculation: +
[4]; Polymer P4
  Start sample measurement, yeast assess., 4th inoculation: − (slight growth, max. 100 colonies)
  60 d 40° C., yeast assess., 4th inoculation: ++
[4]; Polymer P5 (HP56)
  Start sample measurement, yeast assess., 4th inoculation: − (slight growth, max. 100 colonies)
  60 d 40° C., yeast assess., 4th inoculation: +
[4]; Polymer P6
  Start sample measurement, yeast assess., 4th inoculation: − (slight growth, max. 100 colonies)
  60 d 40° C., yeast assess., 4th inoculation: +
[4]; Polymer P7
  Start sample measurement, yeast assess., 4th inoculation: − (slight growth, max. 100 colonies)
  60 d 40° C., yeast assess., 4th inoculation: +
[4]; Polymer P8
  Start sample measurement, yeast assess., 4th inoculation: − (slight growth, max. 100 colonies)
  60 d 40° C., yeast assess., 4th inoculation: +
[4]; Polymer P9
  Start sample measurement, yeast assess., 4th inoculation: − (slight growth, max. 100 colonies)
  60 d 40° C., yeast assess., 4th inoculation: +

## Cn1sccc1=O [MIT, methyl-4-isothiazolin-3-one]
[1]; Polymer P1 with stabilizer
  Iodine color number, 60 d 40° C.: 5.5
  Iodine color number, start: 2.5
[1]; Polymer P2 with stabilizer
  Iodine color number, 60 d 40° C.: 5.8
  Iodine color number, start: 2.7
[1]; Polymer P3 with stabilizer
  Iodine color number, 60 d 40° C.: 8.5
  Iodine color number, start: 3.4
[1]; Polymer P4 with stabilizer
  Iodine color number, 60 d 40° C.: 8.7
  Iodine color number, start: 3.4
[1]; [5]
  Iodine color number, 60 d 40° C.: 8.7
  Iodine color number, start: 3.6
[1]; Polymer P6 with stabilizer
  Iodine color number, 60 d 40° C.: 8.5
  Iodine color number, start: 3.6
[1]; Polymer P7 with stabilizer
  Iodine color number, 60 d 40° C.: 8.5
  Iodine color number, start: 3.6
[1]; Polymer P8 with stabilizer
  Iodine color number, 60 d 40° C.: 8.6
  Iodine color number, start: 3.5
[1]; Polymer P9 with stabilizer
  Iodine color number, 60 d 40° C.: 12.7
  Iodine color number, start: 3.9
[2]; in Polymer P1
  active-substance concentration, 0 d, RT: 250 ppm
  active-substance concentration, 14 d, 40° C.: 217 ppm
  active-substance concentration, 28 d, 40° C.: 156 ppm
  active-substance concentration, 60 d 40° C.: 131 ppm
[2]; in Polymer P2
  active-substance concentration, 0 d, RT: 250 ppm
  active-substance concentration, 14 d, 40° C.: 181 ppm
  active-substance concentration, 28 d, 40° C.: 139 ppm
  active-substance concentration, 60 d 40° C.: 116 ppm
[2]; in Polymer P3
  active-substance concentration, 0 d, RT: 250 ppm
  active-substance concentration, 14 d, 40° C.: 171 ppm
  active-substance concentration, 28 d, 40° C.: 140 ppm
  active-substance concentration, 60 d 40° C.: 122 ppm
[2]; in Polymer P4
  active-substance concentration, 0 d, RT: 250 ppm
  active-substance concentration, 14 d, 40° C.: 164 ppm
  active-substance concentration, 28 d, 40° C.: 136 ppm
  active-substance concentration, 60 d 40° C.: 113 ppm
[2]; in Polymer P5 (HP56)
  active-substance concentration, 0 d, RT: 250 ppm
  active-substance concentration, 14 d, 40° C.: 151 ppm
  active-substance concentration, 28 d, 40° C.: 119 ppm
  active-substance concentration, 60 d 40° C.: 94 ppm
[2]; in Polymer P6
  active-substance concentration, 0 d, RT: 250 ppm
  active-substance concentration, 14 d, 40° C.: 143 ppm
  active-substance concentration, 28 d, 40° C.: 117 ppm
  active-substance concentration, 60 d 40° C.: 87 ppm
[2]; in Polymer P7
  active-substance concentration, 0 d, RT: 250 ppm
  active-substance concentration, 14 d, 40° C.: 149 ppm
  active-substance concentration, 28 d, 40° C.: 123 ppm
  active-substance concentration, 60 d 40° C.: 91 ppm
[2]; in Polymer P8
  active-substance concentration, 0 d, RT: 250 ppm
  active-substance concentration, 14 d, 40° C.: 151 ppm
  active-substance concentration, 28 d, 40° C.: 119 ppm
  active-substance concentration, 60 d 40° C.: 94 ppm
[2]; in Polymer P9
  active-substance concentration, 0 d, RT: 250 ppm
  active-substance concentration, 14 d, 40° C.: 131 ppm
  active-substance concentration, 28 d, 40° C.: 98 ppm
  active-substance concentration, 60 d 40° C.: 80 ppm
[3]; Polymer P1 with stabilizer
  Physical stability, 60 d 40° C.*: −
[3]; Polymer P2 with stabilizer
  Physical stability, 60 d 40° C.*: −
[3]; Polymer P3 with stabilizer
  Physical stability, 60 d 40° C.*: −
[3]; Polymer P4 with stabilizer
  Physical stability, 60 d 40° C.*: −
[3]; [5]
  Physical stability, 60 d 40° C.*: −
[3]; Polymer P6 with stabilizer
  Physical stability, 60 d 40° C.*: −
[3]; Polymer P7 with stabilizer
  Physical stability, 60 d 40° C.*: −
[3]; Polymer P8 with stabilizer
  Physical stability, 60 d 40° C.*: −
[3]; Polymer P9 with stabilizer
  Physical stability, 60 d 40° C.*: −
[4]; Polymer P1
  60 d 40° C., yeast assess., 4th inoculation: 0 (moderate growth, max. 400 colonies)
[4]; Polymer P2
  60 d 40° C., yeast assess., 4th inoculation: +
[4]; Polymer P3
  60 d 40° C., yeast assess., 4th inoculation: ++
[4]; Polymer P4
  60 d 40° C., yeast assess., 4th inoculation: ++
[4]; Polymer P5 (HP56)
  60 d 40° C., yeast assess., 4th inoculation: ++
[4]; Polymer P6
  60 d 40° C., yeast assess., 4th inoculation: ++
[4]; Polymer P7
  60 d 40° C., yeast assess., 4th inoculation: ++
[4]; Polymer P8
  60 d 40° C., yeast assess., 4th inoculation: +
[4]; Polymer P9
  60 d 40° C., yeast assess., 4th inoculation: ++
